Results published in patent publication US10087195B2, “Certain protein kinase inhibitors” (Shanghai Fochon Pharmaceutical Co., Ltd., priority 2014, dated 2018).

Key:
COLO-205 cells = assay: COLO-205 cell proliferation assay (MTS), mechanism-based assay for CDK4/6 inhibition; details: Homo sapiens, compound treatment 48 h, MTS absorbance 490 nm, read-out: COLO205 IC50
Method: To investigate whether a compound is able to inhibit the activity of CDK4/6 in cells, a mechanism-based assay using COLO-205 cell was developed. In this assay, inhibition of CDK4/6 was detected by the inhibition of COLO-205 cells proliferation. COLO-205 cells were cultured in culture flasks to 40-80% confluence in RPMI-1640 plus 10% fetal bovine serum. Cells were collected and plated onto 96-well plates at desired cell density (2000 cells/well). Plates were incubated overnight at 37° C., with 5% CO2 to adhere. Compounds were added to the plates, the final compound concentrations were […], 123.5, 41.2, 13.7, 4.6 and 1.5 nM. Place plates at 37° C., with 5% CO2 for 48 h. After removing the medium, 20 μl MTS/100 μl medium mixture solution were added to each well and incubate the plates for exactly 1.5 hours. Stop the reaction by adding 25 μl 10% SDS per well. Measure absorbance at 490 nm and 650 nm (reference wavelength). IC50 was calculated using GraphPad Prism 5.0.

BE(2)-C Cells = assay: BE(2)-C cell proliferation assay (MTS); format: cell-based; details: Homo sapiens, compound treatment 72 hours
Method: BE(2)-C Cells were plated in 96-well plates with 150 μl culture medium at cell density of 5000 cells/well. Compounds dilution: 20 mM stock solution of all compounds in DMSO. On the day of treatment, compounds were fresh diluted from the stock solution to a working solution (4× of final concentrations) in culture medium. 50 μl of compound mixtures were added to duplicate wells along with 150 μl of cells. 24 hours after BE(2)-C cells were plated, testing compounds were added. Cell proliferation was measured by MTS assay following manufacturer's instruction after compound treatment for 72 hours.

Question: `CN(C)C(=O)c1sc2cnc(Nc3ccc4c(n3)CCN(C(=O)CO)C4)nc2c1[C@H]1CC[C@H](C)CC1` [Example 90, 2-((6-(2-hydroxyacetyl)-5,6,7,8-tetrahydro-1,6-naphthyridin-2-yl)amino)-N,N-dimethyl-7-((1r,4r)-4-methylcyclohexyl)thieno[3,2-d]pyrimidine-6-carboxamide] was tested. Which IC50 (COLO-205 cells) did it give?
Answer: 270 nM

Question: `CN(C)C(=O)c1sc2cnc(Nc3ccc(N4CCNCC4)nn3)nc2c1[C@H]1CC[C@H](C)CC1` [Example 91, N,N-dimethyl-7-((1r,4r)-4-methylcyclohexyl)-2-((6-(piperazin-1-yl)pyridazin-3-yl)amino)thieno[3,2-d]pyrimidine-6-carboxamide] was tested. Which IC50 (COLO-205 cells) did it give?
Answer: 223 nM

Question: Which results are given for `CN(C)C(=O)c1sc2cnc(Nc3ccc(N4CCNCC4)cn3)nc2c1C1CCCC1` [Example 1, 7-Cyclopentyl-N,N-dimethyl-2-(5-(piperazin-1-yl)pyridin-2-ylamino)thieno[3,2-d]pyrimidine-6-carboxamide]?
Answer: IC50 (COLO-205 cells): 1110 nM; IC50 (BE(2)-C Cells): 38.5 nM

Question: How did the IC50 (COLO-205 cells) turn out when `CN(C)C(=O)c1oc2cnc(Nc3ccc(N4CCNCC4)cn3)nc2c1C1CCCC1` [Example 7, 7-cyclopentyl-N,N-dimethyl-2-((5-(piperazin-1-yl)pyridin-2-yl)amino)furo[3,2-d]pyrimidine-6-carboxamide] was run?
Answer: 711 nM

Question: How did the IC50 (COLO-205 cells) turn out when `NC(=O)c1sc2cnc(Nc3ccc(N4CCNCC4)cn3)nc2c1C1CCCC1` [Example 73, 7-cyclopentyl-2-((5-(piperazin-1-yl)pyridin-2-yl)amino)thieno[3,2-d]pyrimidine-6-carboxamide] was run?
Answer: 624 nM

Question: Which IC50 (COLO-205 cells) does the source give for `CN(C)C(=O)c1cc2cnc(Nc3ccc(N4CCNCC4)cn3)nn2c1C1CCCC1` [Example 5, 7-cyclopentyl-N,N-dimethyl-2-((5-(piperazin-1-yl)pyridin-2-yl)amino)pyrrolo[2,1-f][1,2,4]triazine-6-carboxamide] here?
Answer: 517 nM

Question: What about the IC50 (BE(2)-C Cells) of the same compound?
Answer: 601 nM

Question: How did the IC50 (COLO-205 cells) turn out when `CN1CCc2nc(Nc3ncc4sc(C(=O)N(C)C)c([C@H]5CC[C@H](C)CC5)c4n3)ccc2C1` [Example 88, N,N-dimethyl-2-((6-methyl-5,6,7,8-tetrahydro-1,6-naphthyridin-2-yl)amino)-7-((1r,4r)-4-methylcyclohexyl)thieno[3,2-d]pyrimidine-6-carboxamide] was run?
Answer: 855 nM

Question: For `CN1CCN(c2ccc(Nc3ncc4sc(C(=O)N(C)C)c(C5CCCC5)c4n3)nc2)CC1` [Example 2, 7-Cyclopentyl-N,N-dimethyl-2-(5-(4-methylpiperazin-1-yl)pyridin-2-ylamino)thieno[3,2-d]pyrimidine-6-carboxamide], which IC50 (COLO-205 cells) is on record?
Answer: 339 nM

Question: What about the IC50 (BE(2)-C Cells) of the same compound?
Answer: 24.1 nM

Question: `CN(C)C(=O)c1sc2cnc(Nc3ccc4c(n3)CCNC4)nc2c1[C@H]1CC[C@H](C)CC1` [Example 87, N,N-dimethyl-7-((1r,4r)-4-methylcyclohexyl)-2-((5,6,7,8-tetrahydro-1,6-naphthyridin-2-yl)amino)thieno[3,2-d]pyrimidine-6-carboxamide] was tested. Which IC50 (COLO-205 cells) did it give?
Answer: 450 nM

Question: Which IC50 (COLO-205 cells) does the source give for `CC(=O)N1CCc2nc(Nc3ncc4sc(C(=O)N(C)C)c([C@H]5CC[C@H](C)CC5)c4n3)ccc2C1` [Example 89, 2-((6-acetyl-5,6,7,8-tetrahydro-1,6-naphthyridin-2-yl)amino)-N,N-dimethyl-7-((1r,4r)-4-methylcyclohexyl)thieno[3,2-d]pyrimidine-6-carboxamide] here?
Answer: 389 nM
